Results: US20250011881A1, “MYC-HSF1 DUAL AMPLIFICATION AS A BIOMARKER FOR CANCER TREATMENT” (The Trustees of Indiana University, priority 2023, published 2025)
“And” between values parts separate entries of the source, which are not always exact repeats. Equal values may be shown once. Where a name gives a salt, the structure may show the parent alone.

What follows are molecules tested on ovarian cancer cells with (OVCAR8, OVCAR4) or without (OVSAHO, CAOV3) MYC-HSF1 amplification (assay: Epigenetic inhibitor drug screen, cell viability (Cell Titer Blue)). Details: not given.
Assay type: cell-based

| SMILES | Non Amp - AMP (POC) 10 uM |
| --- | --- |
| Cl.Cl.c1cc(-c2cnn3cc(-c4ccc(OCCN5CCCCC5)cc4)cnc23)ccn1 [Dorsomorphin 2HCl] | 15.62 POC |
| CN(C)CCCn1cc(C2=C(c3c[nH]c4ccccc34)C(=O)NC2=O)c2ccccc21 [GF 109203X] | 3.766 POC |
| O=C(O)CCNc1cc(N2CCc3ccccc3CC2)nc(-c2ccccn2)n1 [GSK J1] | 1.38 POC |
| Cl.Cl.c1ccc([C@@H]2C[C@H]2NC2CCNCC2)cc1 [GSK-LSD1 2HCl] | 2.922 POC |
| CCS(=O)(=O)Nc1ccc2c(c1)/C(=C(/Nc1ccc(CN3CCCCC3)cc1)c1ccccc1)C(=O)N2 [Hesperadin] | 39.85 POC |

Same assay, conditions: 10 uM, 48 hrs; average relative cell viability (vs 1% DMSO) of non-amplified cells (OVSAHO, CAOV3) minus that of MYC-HSF1 amplified cells (OVCAR8, OVCAR4); positive = greater response in amplified cells

| SMILES | Non Amp - AMP (POC) 10 uM |
| --- | --- |
| c1cc(-c2cnn3cc(-c4ccc(OCCN5CCCCC5)cc4)cnc23)ccn1 [Dorsomorphin (Compourd C), Dorsomorphin] | 7.913 POC |
| Cc1cc(Cl)ccc1OCCCC(=O)NO [Droxinostat] | −21.53 POC |
| CS(=O)(=O)c1ccc(-c2cnc(NCc3ccco3)n3cnnc23)cc1 [EED226] | 32.64 POC |
| CCC(CC)n1ccc2c(C(=O)NCc3c(C)cc(C)[nH]c3=O)cc(C#N)cc21 [EI1] | 15.27 POC |
| Cc1cc(Nc2cc(N3CCN(C)CC3)nc(/C=C/c3ccccc3)n2)n[nH]1.O=C(O)C(O)C(O)C(=O)O [ENMD-2076 L-(+)-Tartaric acid] | −24.46 POC |
| Cc1cc(Nc2cc(N3CCN(C)CC3)nc(/C=C/c3ccccc3)n2)n[nH]1 [ENMD-2076] | −22.8 POC |
| CC(C)N(CCCNC(=O)Nc1ccc(C(C)(C)C)cc1)C[C@H]1O[C@@H](n2ccc3c(N)ncnc32)[C@H](O)[C@@H]1O.O=CO [EPZ004777 (formate)] | 10.91 POC |
| CC(C)N(CCCNC(=O)Nc1ccc(C(C)(C)C)cc1)C[C@H]1O[C@@H](n2ccc3c(N)ncnc32)[C@H](O)[C@@H]1O [EPZ004777] | 6.632 POC |
| Cc1cc(C)c(CNC(=O)c2cc(-c3ccc(CN4CCOCC4)cc3)cc3c2cnn3C2CCCC2)c(=O)[nH]1 [EPZ005687] | 15.13 POC |
| CC(C)(CCCCCC(O)CCCCCC(C)(C)C(=O)O)C(=O)O [ETC-1002] | −2.506 POC |
| NC(=O)C1CCCc2c1[nH]c1ccc(Cl)cc21 (stereo not shown) [EX 527 (SEN0014196)] | −0.5892 POC |
| O=c1oc2c(O)c(O)cc3c(=O)oc4c(O)c(O)cc1c4c23 [Ellagic acid] | 13.8 POC |
| CCN(CC)C(=O)/C(C#N)=C/c1cc(O)c(O)c([N+](=O)[O-])c1 [Entacapone] | −6.777 POC |
| Cn1cc(C2=C(c3cn(C4CCN(Cc5ccccn5)CC4)c4ccccc34)C(=O)NC2=O)c2ccccc21 [Enzastaurin (LY317615), Enzastaurin] | 13.08 POC |
| O=C(O)CNC(=O)c1nc(Cl)c2ccccc2c1O [FG2216] | −1.816 POC |
| Cc1nc(C(=O)NCC(=O)O)c(O)c2ccc(Oc3ccccc3)cc12 [FG-4592 (ASP1517)] | −0.1816 POC |
| O=S(=O)(c1cccc2cnccc12)N1CCCNCC1 [Fasudil (HA-1077) HCl, Fasudil] | 15.8 POC |
| O=c1c(O)c(-c2ccc(O)c(O)c2)oc2cc(O)ccc12 [Fisetin] | 10.02 POC |
| O=C(O)c1ccccc1Nc1cccc(C(F)(F)F)c1 [Flufenamic acid] | −4.318 POC |
| CS(=O)(=O)c1ccc(-c2nnc(/C=C/c3nnc(-c4ccc(C#N)cc4)o3)n2-c2ccccc2Cl)nc1 [G007-LK] | −1.13 POC |

| SMILES | Non Amp - AMP (POC) 10 uM |
| --- | --- |
| N#Cc1ccc(COc2ccc(-c3cccc4nc(NC(=O)C5CC5)nn34)cc2)cn1 [GLPG0634 analogue] | −7.702 POC |
| O=C(Nc1nc2cccc(-c3ccc(CN4CCS(=O)(=O)CC4)cc3)n2n1)C1CC1 [GLPG0634] | 15.53 POC |
| COc1cc(C(=O)N2CC[C@@H](O)[C@@H](N)C2)cc2nc(-c3cc4ccccc4n3CC3CC3)n(C)c12.Cl [GSK484 (hydrochloride)] | 0.3153 POC |
| Cc1cc(C)c(CNC(=O)c2cc(-c3ccc(N4CCN(C)CC4)nc3)cc3c2c(C)cn3C(C)C)c(=O)[nH]1 [GSK503] | −0.09843 POC |
| CCn1c(-c2nonc2N)nc2c(C#CC(C)(C)O)ncc(OC[C@H]3CCCNC3)c21 [GSK690693] | −7.029 POC |
| CC(=O)N1c2ccc(-c3ccc(C(=O)O)cc3)cc2[C@H](Nc2ccc(Cl)cc2)C[C@@H]1C [GSK1324726A] | 0.1295 POC |
| COc1ccccc1C(=O)Nc1cc2c(cc1N1CCCCC1)n(C)c(=O)n2C [GSK 5959] | 10.99 POC |
| O=C(O)CCNc1cc(N2CCc3ccccc3CC2)nc(-c2cccnc2)n1 [GSK J2] | 0.5701 POC |
| O=C1Nc2cc(Br)ccc2/C1=C1/Nc2ccccc2/C1=N\O [GSK-3 Inhibitor IX (BIO)] | −1.008 POC |
| O=C(O)CCNc1cc(N2CCc3ccccc3CC2)nc(-c2ccccn2)n1 [GSK-J1 (sodium salt)] | 8.487 POC |
| c1ccc([C@@H]2C[C@H]2NC2CCNCC2)cc1 [GSK-LSD1 (hydrochloride)] | 14.88 POC |
| C=C(C)[C@@H](CC=C(C)C)C[C@@]12C[C@@H](CC=C(C)C)C(C)(C)[C@@](CC=C(C)C)(C(=O)C(C(=O)c3ccc(O)c(O)c3)=C1O)C2=O [Garcinol] | 6.401 POC |
| Cn1c2ccccc2c2c3c(c4c5ccccc5n(CCC#N)c4c21)CNC3=O [Go 6976] | 5.045 POC |
| COc1ccc2c(c1)c(C1=C(c3c[nH]c4ccccc34)C(=O)NC1=O)cn2CCCN(C)C [Go 6983] | 14.34 POC |
| Cl.O=S(=O)(c1cccc2cnccc12)N1CCNCC1 [HA-100 (hydrochloride)] | 12.45 POC |
| O=C1/C(=C/c2ccc(O)c(Br)c2)CCC/C1=C\c1ccc(O)c(Br)c1 [HAT Inhibitor II] | −25.46 POC |
| O=C(NO)c1ccc(CC(=O)N(CCO)c2ccccc2)cc1 [HPOB] | 18.14 POC |
| Cc1nc(Nc2cnn(C3CCNCC3)c2)nc2c1N(C)C(=O)c1cc3ccccc3cc1N2C [HTH-01-015] | −3.924 POC |
| CC(C)c1cccc(=O)c(O)c1 [Hinokitiol] | −6.718 POC |
| CCC(=O)N1CCOc2c(cc(-c3ccc(OC)c(OC)c3)cc2OC[C@H]2CCCN(C)C2)C1 [I-CBP112 (hydrochloride)] | 20.48 POC |

Same assay, conditions: 10 uM, 48 hrs; average relative cell viability (vs 1% DMSO) of non-amplified cells (OVSAHO, CAOV3) minus that of MYC-HSF1 amplified cells (OVCAR8, OVCAR4); positive = greater response in amplified cells; 10 µM

| SMILES | Non Amp - AMP (POC) 10 uM |
| --- | --- |
| COc1cccc2c1C(=O)c1c(O)c3c(c(O)c1C2=O)C[C@@](O)(C(=O)CO)C[C@@H]3O[C@H]1C[C@H](N)[C@H](O)[C@H](C)O1 [Doxorubicin (Adriamycin) HCl, Doxorubicin] | 3.26 POC |
| COc1cccc2c1C(=O)c1c(O)c3c(c(O)c1C2=O)C[C@@](O)(C(=O)CO)C[C@@H]3O[C@H]1C[C@H](N)[C@H](O)[C@H](C)O1 [Doxorubicin] | 4.864 POC |
| CCN(c1cc(-c2ccc(CN3CCOCC3)cc2)cc(C(=O)NCc2c(C)cc(C)[nH]c2=O)c1C)C1CCOCC1 [EPZ6438] | 8.683 POC |
| O=C(O)c1ccc(CN2CCC(CN[C@@H]3C[C@H]3c3ccccc3)CC2)cc1 [GSK2879552] | 13.47 POC and 12.35 POC |
| CCOC(=O)CCNc1cc(N2CCc3ccccc3CC2)nc(-c2ccccn2)n1.Cl [GSK J4 HCl] | −10.21 POC |
| Nc1ccn([C@@H]2O[C@H](CO)[C@@H](O)C2(F)F)c(=O)n1 [Gemcitabine] | 28.61 POC |
| COc1cc2c(cc1-c1c(C)noc1C)ncc1[nH]c(=O)n([C@H](C)c3ccccn3)c12 [I-BET151] | 21.72 POC |
| CCNC(=O)C[C@@H]1N=C(c2ccc(Cl)cc2)c2cc(OC)ccc2-n2c(C)nnc21 [I-BET-762] | 5.52 POC |

Same assay, conditions: 10 uM, 48 hrs; average relative cell viability (vs 1% DMSO) of non-amplified cells (OVSAHO, CAOV3) minus that of MYC-HSF1 amplified cells (OVCAR8, OVCAR4); positive = greater response in amplified cells; HCl, 10 µM

| SMILES | Non Amp - AMP (POC) 10 uM |
| --- | --- |
| Nc1ccn([C@@H]2O[C@H](CO)[C@@H](O)C2(F)F)c(=O)n1 [Gemcitabine HCl] | 8.319 POC |

Same assay, conditions: 10 uM, 48 hrs; average relative cell viability (vs 1% DMSO) of non-amplified cells (OVSAHO, CAOV3) minus that of MYC-HSF1 amplified cells (OVCAR8, OVCAR4); positive = greater response in amplified cells; listed as EPZ-6438, 10 µM

| SMILES | Non Amp - AMP (POC) 10 uM |
| --- | --- |
| CCN(c1cc(-c2ccc(CN3CCOCC3)cc2)cc(C(=O)NCc2c(C)cc(C)[nH]c2=O)c1C)C1CCOCC1 [EPZ6438] | 3.862 POC |

Same assay, conditions: 10 uM, 48 hrs; average relative cell viability (vs 1% DMSO) of non-amplified cells (OVSAHO, CAOV3) minus that of MYC-HSF1 amplified cells (OVCAR8, OVCAR4); positive = greater response in amplified cells; listed as GSK-J4 (hydrochloride), 10 µM

| SMILES | Non Amp - AMP (POC) 10 uM |
| --- | --- |
| CCOC(=O)CCNc1cc(N2CCc3ccccc3CC2)nc(-c2ccccn2)n1.Cl [GSK J4 HCl] | −13.06 POC |

Same assay, conditions: 10 uM, 48 hrs; average relative cell viability (vs 1% DMSO) of non-amplified cells (OVSAHO, CAOV3) minus that of MYC-HSF1 amplified cells (OVCAR8, OVCAR4); positive = greater response in amplified cells; listed as I-BET151 (GSK1210151A), 10 µM

| SMILES | Non Amp - AMP (POC) 10 uM |
| --- | --- |
| COc1cc2c(cc1-c1c(C)noc1C)ncc1[nH]c(=O)n([C@H](C)c3ccccn3)c12 [I-BET151] | 3.072 POC |

Same assay, conditions: 10 uM, 48 hrs; average relative cell viability (vs 1% DMSO) of non-amplified cells (OVSAHO, CAOV3) minus that of MYC-HSF1 amplified cells (OVCAR8, OVCAR4); positive = greater response in amplified cells; listed as I-BET762, 10 µM

| SMILES | Non Amp - AMP (POC) 10 uM |
| --- | --- |
| CCNC(=O)C[C@@H]1N=C(c2ccc(Cl)cc2)c2cc(OC)ccc2-n2c(C)nnc21 [I-BET-762] | −1.572 POC |
